For data set [1], the system named is PXR-SRC (steroid receptor coactivator) tethered protein. As to conditions: read-out: hypothetical Kd, circular dichroism; cited from earlier work.
Data set [2] concerns PXR protein (without SRC). Particulars: affinity selection-mass spectrometry; cited from earlier work.
Data set [3] is described as follows: Solubility observed in TR-FRET assay dilution series. Format: physicochemical. As to conditions: at 100 μM, TR-FRET assay buffer, […] DMSO. For orientation: Time-resolved FRET reads energy transfer from a long-lived donor to a nearby acceptor.

As usually defined, the Kd is the concentration at which binding is half-saturated. Turning to `CO[C@H]1/C=C/O[C@@]2(C)Oc3c(C)c(O)c4c(O)c(c(/C=N/N5CCN(C)CC5)c(O)c4c3C2=O)NC(=O)/C(C)=C\C=C\[C@H](C)[C@H](O)[C@@H](C)[C@@H](O)[C@@H](C)[C@H](OC(C)=O)[C@@H]1C` [Rifampicin, 3-(4-methylpiperazinyliminomethyl)rifamycin SV], the Kd in data set [1] is 540 nM; in data set [2] it was […].

Turning to `Clc1ccccc1C(c1ccccc1)(c1ccccc1)n1ccnc1` [Clotrimazole, 1-[(2-chlorophenyl)diphenylmethyl]-1H-imidazole], the solubility in assay result in data set [3] is on record as “incomplete solubility”. The dissociation constant Kd in data set [1] was 290 nM; in data set [2], 330 nM.

(Values after publication PMC3825844 (Analytical biochemistry, 2013).)
